Assay results reported in patent publication US20050181066A1, “Novel use of guanylate cyclase activators for the treatment of respiratory insufficiency” (Altana Pharma AG, priority 2002, published 2005).
Entries after “also recorded” stand apart in the source; their conditions may differ.

Assays:
[1] = system: anaesthetized and ventilated rabbit with oleic acid-induced lung damage; experiment: Whole animal model of acute pulmonary hypertension with severe gas exchange impairment through oleic acid (MIGET, haemodynamics); format: in vivo; conditions: for effect on pulmonary arterial pressure (FIG. 2) / effect on systemic arterial pressure (FIG. 3): NO 10, 34, 70, 120, 200 ppm by inhalation, YC-1 5 mg infusion over 10 min; for effect on pulmonary arterial pressure (FIG. 2) / effect on systemic arterial pressure (FIG. 3) / effect on arterial oxygenation / oxygenation index (FIG. 6) / effect on intrapulmonary shunting (MIGET, FIG. 5) / effect on perfusion of normally ventilated areas of the lung (normal V/Q, MIGET, FIG. 7) / effect on pulmonary arterial pressure (FIG. 4): n=6; for effect on arterial oxygenation / oxygenation index (FIG. 6): 150 min after oleic acid injection; for intrapulmonary shunting (MIGET): oleic acid (OA) group 33±2 %; for arterial oxygenation: oleic acid (OA) group 123±13 mmHg; for effect on intrapulmonary shunting (MIGET, FIG. 5) / effect on perfusion of normally ventilated areas of the lung (normal V/Q, MIGET, FIG. 7) / effect on pulmonary arterial pressure (FIG. 4): YC-1 5 mg infusion 30-40 min after oleic acid
Description: Whole Animal Model of Acute Pulmonary Hypertension with Severe Gas Exchange Impairment Through Infusion of Oleic Acid
The test animals In the rabbit model were anaesthetized by injection of about 700 μl of a mixture of Ketanest and Rompun in the ratio 3:2. The spontaneous breathing of the animal was maintained with this initial anaesthesia. 1 000 I.U. of heparin per kg of bodyweight were injected for anticoagulation. For the intubation, 7 ml of Xylocaine were injected into the subcutaneous tissue of the animal's neck. A tube was introduced into the trachea underneath the larynx and was used from this instant onwards for ventilation of the animal through the ventilation pump (breathing rate: […], tidal volume 35 ml). The animal underwent standard ventilation with a 50% N2 and a 50% O2 gas mixture. 7 ml/h of the anaesthetic mixture were administered through a Perfusor, which led to a deep analgesia and relaxation of the animal. The left common carotid artery was ligated and punctured for measurement of the arterial pressure. […] Through this port, a 4F balloon catheter was placed in the right ventricle and the right ventricular pressure was recorded. The gas exchange was analysed by the multiple inert gas elimination technique (MIGET). The MIGET is based on elimination and retention of a plurality of inert gases. Central venous infusion thereof in dissolved form into the animal via the ear margin vein was therefore necessary. This infusion solution was prepared by introducing 250 ml of the perfusate without air bubbles into a gas-tight bag. 0.5 ml of liquid halothane was put into this bag through an injection plug. The bag was then filled with a test gas mixture (10% SF6 3.0, 20% cyclopropane 2.0 and 70% ethane 2.5) and the gases were dissolved in the perfusate. 0.15 ml of diethyl ether was injected, followed by 0.7 ml of acetone. This solution was infused continuously at 30 ml/h into the animal during the equilibration period after change of the perfusate. An equilibrium between retention and elimination of the gases was set up within a period of 30-40 min. After this time, 2.5 ml samples were taken simultaneously from the arterial and venous blood by gas-tight 50 ml glass syringes (B-D Yale, Becton, Dickinson & Co, USA). The arterial and the venous sample was then weighed, blanketed with 15 ml of nitrogen gas (ECD grade) and incubated at 38° C. in a shaking water bath (135 min^−1). During this time, an equilibrium, depending on the solubility of the gas, was set up between the gaseous and liquid phase. After the equilibration time had elapsed, the total volume of the syringe was determined and the supernatant gas was transferred into an air-tight 30 ml glass syringe (B-D Yale, Becton, Dickinson & Co, USA) preheated to 38° C. The latter was stored at 38° C. and used for gas chromatographic analysis. Immediately after removal of the arterial and venous perfusate, a sample of the expired air from the isolated lung was taken by a preheated 30 ml glass syringe on an expiratory gas mixing box. This gaseous sample was analysed immediately in a gas chromatograph. The gases were analysed by a computer-assisted calculation through which essentially the following parameters were calculated: shunting (perfusion, unventilated regions of the lung), normal V/Q (perfusion in normally ventilated regions of the lung).
Besides the MIGET data, the following haemodynamic parameters were determined: • pulmonary arterial pressure • systemic arterial pressure • arterial oxygen partial pressure (pO2)
Catheterization of the animal was followed by injection of 50 μg of oleic acid (OA) into the pulmonary artery. The pulmonary arterial pressure rose after this injection from 11-13 mmHg to a stable plateau of 17-18 mmHg. This rise in the pulmonary arterial pressure was accompanied by severe gas exchange impairment essentially characterized by a fall in the arterial oxygenation and a rise in the shunt perfusion (measured by the MIGET). […]

[2] = system: ventilated patients suffering from acute adult respiratory distress syndrome (ARDS); conditions: inhaled; cited from earlier work
isolated rabbit lung = experiment: Isolated, bloodlessly perfused and ventilated rabbit lung with U46619-induced acute pulmonary hypertension; conditions: for effect on pulmonary arterial pressure (FIG. 1): U46619-induced pulmonary hypertension, NO 10, 50, 100, 200 ppm cumulatively by inhalation, YC-1 0.1 μM, enhancement at 50, 100, 200 ppm NO, n=6
Description: Model of the Isolated, Bloodlessly Perfused and Ventilated Rabbit Lung
The test animal was anaesthetized by injection of about 700 μl of a mixture of Ketanest and Rompun in the ratio 3:2. The spontaneous breathing of the animal was maintained with this initial anaesthesia. 1 000 I.U. of heparin per kg of bodyweight were injected through the venous access for anticoagulation. For the intubation, 7 ml of Xylocaine were injected into the subcutaneous tissue of the animal's neck. A tube was introduced into the trachea underneath the larynx and was used from this instant onwards to ventilate the animal with ambient air through the ventilating pump (breathing rate: […], tidal volume 30 ml). About 3 ml of the anaesthetic mixture were administered over a period of 15 min. The lungs were then removed by a standard technique; likewise dissection of the pulmonary artery and the ascending aorta.
To make it possible to remove the lung from the body's own perfusion without interruption, the pulmonary artery catheter of the perfusion system was, after incision of the right ventricle, advanced into the pulmonary artery and fixed there by means of the open ligature. After cutting off the apex of the heart and closing the ascending aorta, the lung was artificially perfused with Krebs-Henseleit buffer cooled to 4° C. (the cooling served to reduce metabolism) at 20 ml/min. The ambient air was replaced by a 5% CO2, 15% O2 and 80% N2 gas mixture.
The lung was dissected out of the thorax, and a connector was sutured into the left heart to allow the perfusion circulation to be completed. The lung was suspended on a weighing cell and the perfusion circulation was completed through the connector. The lung perfusate then flowed out through a pressure cascade. The temperature of the complete system was raised to 38° C. and the pressure recording started. In the system, the pulmonary artery pressure, the left ventricular pressure, the ventilation pressure and the weight were recorded continuously. […]

[3] = system: patients with post-traumatic pulmonary dysfunction; conditions: infusion; 11 patients; cited from earlier work
[4] = system: rabbit model of acute pulmonary hypertension; conditions: cited from earlier work; for effect on pulmonary hypertension / pulmonary and systemic vasodilatation: systemic (intravenous) administration, in the combination a dose of dipyridamole with no activity per se
[5] = system: patients with bronchial asthma; conditions: intravenous administration; cited from earlier work
[6] = NO 100 ppm inhaled 30-150 min, YC-1 5 mg infusion 30-40 min

For [N]=O [NO, nitric oxide], the “effect on pulmonary arterial pressure (FIG. 2)” value ([1]; 50 μg oleic acid) was “dose-dependent reduction in the pulmonary arterial pressure”, the “effect on systemic arterial pressure (FIG. 3)” value ([1]; 50 μg oleic acid) was “remained unchanged; also recorded: did not lead to a dose-dependent reduction in the systemic arterial pressure” and the “effect on arterial oxygenation / oxygenation index (FIG. 6)” value [1, 6] was “significant increase in the arterial oxygenation”. For the same compound, the pulmonary arterial pressure ([1]; NO 100 ppm inhaled 30-150 min, YC-1 5 mg infusion 30-40 min, oleic acid (OA) group 17.8±1.6 mmHg) was 14.5±1.8 mmHg, the “intrapulmonary shunting (MIGET)” value [1, 6] was 23±3% and the arterial oxygenation [1, 6] was 234±21 mmHg. The “effect on intrapulmonary shunting (MIGET, FIG. 5)” value ([1]; NO 100 ppm inhaled 30-150 min) was “reduction in the intrapulmonary shunting”, the “effect on perfusion of normally ventilated areas of the lung (normal V/Q, MIGET, FIG. 7)” value ([1]; NO 100 ppm inhaled 30-150 min) was “significant increase in the perfusion of normally ventilated areas of the lung” and the “effect on pulmonary arterial pressure (FIG. 4)” value ([1]; NO 100 ppm inhaled 30-150 min) was “reduction in the pulmonary arterial pressure”. The “effect on gas exchange” value [2] was “improvement in gas exchange” and the “effect on pulmonary arterial pressure (FIG. 1)” value (isolated rabbit lung) was “dose-dependent reduction in the pulmonary arterial pressure”.
In the case of O=[N+]([O-])OCC(CO[N+](=O)[O-])O[N+](=O)[O-] [Ng, 1,2,3-propanetriyl trinitrate], the “effect on acute pulmonary hypertension” value [3] is listed as “reduction in the acute pulmonary hypertension” and the “effect on arterial oxygen content” value [3] is listed as “deterioration in the arterial oxygen content”.
With CCCCC[C@H](O)/C=C/[C@@H]1[C@@H](C/C=C\CCCC(=O)O)[C@H]2CO[C@@H]1C2 [U46619] the “pulmonary arterial pressure raised by U46619” value (isolated rabbit lung; continuous intravascular 70 to 160 pmol/kg min U46619, raised from 6-8 mmHg) was 33-35 mmHg.
In the case of OCc1ccc(-c2nn(Cc3ccccc3)c3ccccc23)o1 [YC-1, 3-(5′-Hydroxymethyl-2′-furyl)-1-benzyl indazole], the “effect on pulmonary arterial pressure (FIG. 2)” value ([1]; 50 μg oleic acid) is reported as “no effect on the measured parameters”, the “effect on systemic arterial pressure (FIG. 3)” value ([1]; 50 μg oleic acid) is reported as “no effect on the measured parameters” and the “effect on arterial oxygenation / oxygenation index (FIG. 6)” value [1, 6] is reported as “significant effect on the oxygenation index”. The “intrapulmonary shunting (MIGET)” value [1, 6] was 21±4%, the arterial oxygenation [1, 6] was 215±8 mmHg and the “effect on intrapulmonary shunting (MIGET, FIG. 5)” value ([1]; NO 100 ppm inhaled 30-150 min) was “no significant effect on intrapulmonary shunting”. The “effect on perfusion of normally ventilated areas of the lung (normal V/Q, MIGET, FIG. 7)” value ([1]; NO 100 ppm inhaled 30-150 min) was “no significant effect on the perfusion of normally ventilated areas of the lung”, the “effect on pulmonary arterial pressure (FIG. 4)” value ([1]; NO 100 ppm inhaled 30-150 min) was “no effect on the pulmonary arterial pressure” and the “effect on pulmonary arterial pressure (FIG. 1)” value (isolated rabbit lung) was “no intrinsic effect on the pulmonary arterial pressure”.
For OCCN(CCO)c1nc(N2CCCCC2)c2nc(N(CCO)CCO)nc(N3CCCCC3)c2n1 [dipyridamole], the “effect on pulmonary hypertension / pulmonary and systemic vasodilatation” value [4] is listed as “dose-dependent reduction in the pulmonary and systemic vasodilatation”.
With CCCCCCCC/C=C\CCCCCCCC(=O)O [oleic acid] the “intrapulmonary shunting after oleic acid injection” value ([1]; 50 μg oleic acid) was 30-35% and the “pulmonary arterial pressure plateau after oleic acid injection” value ([1]; 50 μg oleic acid into the pulmonary artery, rise from 11-13 mmHg) was 17-18 mmHg.
In the case of urodilatin, the “effect on pressure in the systemic circulation” value ([4]; intravenous administration) is given as “reduces the pressure in the systemic circulation to the same extent”, the “effect on pulmonary hypertension / pulmonary and systemic vasodilatation” value [4] is given as “dose-dependent reduction in the pulmonary and systemic vasodilatation; also recorded: marked reduction in pulmonary hypertension” and the “effect on ventilatory parameters” value [5] is given as “improvement in the ventilatory parameters”.
